Laboratory results reported in the supplement of paper PMC10307832.

Key:
Experiment in all cases: relative viability (nuclei count vs DMSO), 5 days (fraction); higher = more cells survive
[1] = compound: CC(C)(C)c1nc(-c2cccc(NS(=O)(=O)c3c(F)cccc3F)c2F)c(-c2ccnc(N)n2)s1 [Dabrafenib] + COc1cccc2cc(-c3nc([C@H]4CC[C@H](C(=O)O)CC4)n4ncnc(N)c34)[nH]c12 [OSI-027] (partner 0.5 µM)
Summary of the method: (§1)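 For relative viability, nuclei counts in treated wells were divided by those in vehicle wells. Lung cancer cell lines had been pin-tool dosed in 1536-well plates the day after seeding and cultured for 5 days, then fixed and stained in one step (final 0.05% Triton X-100, 1% formaldehyde, 1 ug/ml Hoechst) and imaged at 4×. Doses were one drug alone or a fixed anchor-drug dose plus five library-drug doses (not always all listed) in √10 steps, and values are duplicate-plate medians.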

[2] = compound: CC(C)(C)c1nc(-c2cccc(NS(=O)(=O)c3c(F)cccc3F)c2F)c(-c2ccnc(N)n2)s1 [Dabrafenib] + CS(=O)(=O)N1CCN(Cc2cc3nc(-c4cccc5[nH]ncc45)nc(N4CCOCC4)c3s2)CC1 [Pictilisib] (partner 1 µM)
Summary of the method: as §1

[3] = compound: NC(=O)c1ccc(N(C(N)=O)c2c(F)cccc2F)nc1-c1ccc(F)cc1F [VX-702] + CS(=O)(=O)CCNCc1ccc(-c2ccc3ncnc(Nc4ccc(OCc5cccc(F)c5)c(Cl)c4)c3c2)o1 [Lapatinib] (partner 2 µM)
Summary of the method: as §1

[4] = compound: NC(=O)c1ccc(N(C(N)=O)c2c(F)cccc2F)nc1-c1ccc(F)cc1F [VX-702] + Cc1nc(Nc2ncc(C(=O)Nc3c(C)cccc3Cl)s2)cc(N2CCN(CCO)CC2)n1 [Dasatinib] (partner 0.075 µM)
Summary of the method: as §1

Row | Cell Line | relative viability ([1]; first compound 0.003 µM) | relative viability ([1]; first compound 0.009487 µM) | relative viability ([1]; first compound 0.03 µM) | relative viability ([1]; first compound 0.09487 µM) | relative viability ([1]; first compound 0.3 µM) | relative viability ([2]; first compound 0.003 µM) | relative viability ([2]; first compound 0.009487 µM) | relative viability ([2]; first compound 0.03 µM) | relative viability ([2]; first compound 0.09487 µM) | relative viability ([2]; first compound 0.3 µM) | relative viability ([3]; first compound 0.02 µM) | relative viability ([3]; first compound 0.2 µM) | relative viability ([3]; first compound 0.6325 µM) | relative viability ([3]; first compound 2 µM) | relative viability ([4]; first compound 0.02 µM) | relative viability ([4]; first compound 0.2 µM) | relative viability ([4]; first compound 0.6325 µM) | relative viability ([4]; first compound 2 µM)
1 | NCI-H1993 | 0.468 | 0.498 | 0.433 | 0.565 | 0.56 | 0.811 | 0.789 | 0.723 | 0.625 | 0.728 | 0.811 | 0.827 | 0.827 | 0.743 | 0.512 | 0.611 | 0.615 | 0.59
2 | NCI-H2009 | 0.423 | 0.617 | 0.321 | 0.249 | 0.251 | 0.292 | 0.797 | 0.475 | 0.334 | 0.346 | 1.14 | 0.931 | 1.01 | 1.08 | 0.35 | 0.401 | 0.429 | 0.452
3 | NCI-H2023 | 0.325 | 0.455 | 0.385 | 0.355 | 0.395 | 0.171 | 0.271 | 0.207 | 0.283 | 0.267 | 0.729 | 0.504 | 0.712 | 0.977 | 0.534 | 0.724 | 0.576 | 0.662
4 | NCI-H2085 | 0.355 | 1.06 | 0.675 | 0.616 | 0.859 | 0.381 | 0.481 | 0.328 | 0.452 | 0.462 | 0.81 | 0.739 | 0.767 | 0.808 | 0.209 | 0.339 | 0.207 | 0.27
5 | NCI-H2087 |  | 0.541 | 0.682 | 0.622 | 0.454 | 0.38 | 0.819 | 1.08 | 0.728 | 0.703 | 1.28 | 1.1 | 1.1 | 1.16 | 0.953 | 0.856 | 0.959 | 0.967
6 | NCI-H2126 | 0.492 | 0.787 | 0.717 | 0.609 | 0.954 | 0.46 | 0.514 | 0.529 | 0.543 | 0.595 | 0.752 | 0.763 | 0.74 | 0.824 | 0.637 | 0.542 | 0.549 | 0.573
7 | NCI-H2170 | 0.749 | 0.698 | 0.589 | 0.745 | 0.684 | 0.251 | 0.394 | 0.293 | 0.311 | 0.323 | 0.278 | 0.284 | 0.273 | 0.299 | 0.532 | 0.654 | 0.544 | 0.74
8 | NCI-H2228 |  | 0.668 | 0.554 | 0.52 | 0.607 | 0.331 | 0.386 | 0.415 | 0.316 | 0.483 | 0.851 | 1.04 | 1.04 | 1.33 | 0.466 | 0.499 | 0.461 | 0.535
9 | NCI-H2347 |  | 0.514 | 0.254 | 0.394 | 0.416 | 0.693 | 0.6 | 0.381 | 0.57 | 0.459 | 0.996 | 0.813 | 0.891 | 0.902 | 0.325 |  | 0.277 | 0.294
10 | NCI-H2405 |  | 0.696 |  | 0.548 | 0.626 |  | 0.305 |  | 0.314 | 0.316 | 1.23 | 0.761 | 1.02 | 1.46 | 0.259 | 0.207 | 0.228 | 0.193
11 | NCI-H3122 | 0.919 | 0.967 | 1.07 | 0.925 | 1.06 | 0.581 | 0.629 | 0.793 | 0.692 | 0.719 | 1.07 | 0.977 | 1.04 | 1.03 | 0.921 | 0.84 | 0.752 | 0.789
12 | PC-3 [JPC-3] | 0.629 | 0.84 | 0.771 | 0.705 | 0.801 | 0.642 | 0.982 | 0.916 | 0.745 | 0.818 | 0.468 | 0.461 | 0.442 | 0.414 | 1.03 | 1.05 | 1.07 | 1.06
13 | PC-14 | 0.438 | 1.13 | 0.775 | 0.804 | 0.794 | 0.761 | 0.862 | 0.655 | 0.688 | 0.696 | 0.363 | 0.245 | 0.311 | 0.29 | 0.337 | 0.323 | 0.295 | 0.188
14 | RERF-LC-KJ | 0.565 | 0.767 | 0.615 | 0.68 | 0.731 | 0.575 | 0.592 | 0.455 | 0.616 | 0.748 | 0.891 | 0.801 | 0.888 | 0.933 | 0.837 | 0.781 | 0.87 | 0.901
15 | SK-LU-1 |  | 0.366 | 0.217 | 0.285 | 0.227 |  | 0.668 | 0.385 | 0.416 | 0.397 | 1.09 | 0.885 | 0.887 | 1.29 | 0.222 | 0.177 | 0.196 | 0.206
16 | SK-MES-1 | 0.254 | 0.663 | 0.552 | 0.495 | 0.23 | 0.363 | 0.416 | 0.269 | 0.376 | 0.377 | 0.449 | 0.407 | 0.458 | 0.43 | 0.374 | 0.389 | 0.342 | 0.398
17 | SW 1573 | 0.463 | 0.61 | 0.525 | 0.623 | 0.548 | 0.501 | 0.474 | 0.454 | 0.426 | 0.505 | 1.05 | 1.13 | 1.05 | 0.919 | 0.566 | 0.455 | 0.427 | 0.426
18 | UMC-11 | 0.439 | 0.504 | 0.481 | 0.475 | 0.49 | 0.749 | 0.819 | 0.621 | 0.832 | 0.888 | 0.866 | 0.908 | 0.769 | 1.04 | 0.456 | 0.379 | 0.386 | 0.492
